Test results as given in patent US20090270413A1, “DI-T-BUTYLPHENYL PIPERAZINES AS CALCIUM CHANNEL BLOCKERS” (priority 2008, published 2009).

Molecular target: T1, Human Cav2.2 channels (Homo sapiens, UniProt Q00975)
T1 construct: expressed in transfected cells
Test: Block of Cav2.2 (N-type) channels expressed in HEK293 cells
Assay type: cell-based
Conditions: HEK293; for inhibition at 10 µM: read-out: Cav 2.2 % Inh @ 10 μM; for inhibition at 30 µM: read-out: Cav 2.2 % Inh @ 30 μM
Text: Human Cav2.2 channels were stably expressed in HEK293 cells along with alpha2-delta and beta subunits of voltage-gated calcium channels. An inwardly rectifying potassium channel (Kir2.3) was also expressed in these cells to allow more precise control of the cell membrane potential by extracellular potassium concentration. At low bath potassium concentration, the membrane potential is relatively negative, and is depolarized as the bath potassium concentration is raised. In this way, the bath potassium concentration can be used to regulate the voltage-dependent conformations of the channels. Compounds are incubated with cells in the presence of low (4 mM) potassium or elevated (12, 25 or 30 mM) potassium to determine the affinity for compound block of resting (closed) channels at 4 mM potassium or affinity for block of open and inactivated channels at 12, 25 or 30 mM potassium. After the incubation period, Cav2.2 channel opening is triggered by addition of higher concentration of potassium (70 mM final concentration) to further depolarize the cell. The degree of state-dependent block can be estimated from the inhibitory potency of compounds after incubation in different potassium concentrations.
Calcium influx through Cav2.2 channels is determined using a calcium sensitive fluorescent dye in combination with a fluorescent plate reader. Fluorescent changes were measured with either a VIPR (Aurora Instruments) or FLIPR (Molecular Devices) plate reader.
Protocol • 1. Seed cells in Poly-D-Lysine Coated 96 or 384-well plate and keep in a 37° C.-10% CO2 incubator overnight • 2. Remove media, wash cells with 0.2 mL (96-well plate) or 0.05 mL (384-well plate) Dulbecco's Phosphate Buffered Saline (D-PBS) with calcium & magnesium (Invitrogen; 14040) • 3. Add 0.1 mL (96-well plate) or 0.05 mL (384-well plate) of 4 μM fluor-4 (Molecular Probes; F-14202) and 0.02% Pluronic acid (Molecular Probes; P-3000) prepared in D-PBS with calcium & magnesium (Invitrogen; 14040) supplemented with 10 mM Glucose & 10 mM Hepes/NaOH; pH 7.4 • 4. Incubate in the dark at 25° C. for 60-70 min • 5. Remove dye, wash cells with 0.1 mL (96-well plate) or 0.06 mL (384-well plate) of 4, 12, 25, or 30 mM Potassium Pre-polarization Buffer (PPB) • 6. Add 0.1 mL (96-well plate) or 0.03 mL (384-well plate) of 4, 12, 25, 30 mM PPB with or without test compound • 7. Incubate in the dark at 25° C. for 30 min • 8. Read cell plate on VIPR instrument, Excitation=480 nm, Emission=535 nm • 9. With VIPR continuously reading, add 0.1 mL (96-well plate) or 0.03 mL (384-well plate) of Depolarization Buffer (DB), which is 2× the final assay concentration, to the cell plate.
Block of N-type calcium channels is evaluated utilizing the IonWorks HT 384 well automated patch clamp electrophysiology device. This instrument allows synchronous recording from 384 well (48 at a time). A single whole cell recording is made in each well. Whole cell recording is established by perfusion of the internal compartment with amphotericin B.
The voltage protocol is designed to detect use-dependent block. A 2 Hz train of depolarizations (twenty 25 ms steps to +20 mV). The experimental sequence consists of a control train (pre-compound), incubation of cells with compound for 5 minutes, followed by a second train (post-compound). Use dependent block by compounds is estimated by comparing fractional block of the first pulse in the train to block of the 20th pulse.
Parallel patch clamp electrophysiology is performed using IonWorks HT (Molecular Devices Corp) essentially as described by Kiss and colleagues (Kiss et al. 2003; Assay and Drug Development Technologies, 1:127-135). Briefly, a stable HEK 293 cell line (referred to as CBK) expressing the N-type calcium channel subunits (α1B, α2δ, β3a) and an inwardly rectifying potassium channel (Kir2.3) is used to record barium current through the N-type calcium channel. Cells are grown in T75 culture plates to 60-90% confluence before use. […]

T1 sequence (Q00975 whole entry): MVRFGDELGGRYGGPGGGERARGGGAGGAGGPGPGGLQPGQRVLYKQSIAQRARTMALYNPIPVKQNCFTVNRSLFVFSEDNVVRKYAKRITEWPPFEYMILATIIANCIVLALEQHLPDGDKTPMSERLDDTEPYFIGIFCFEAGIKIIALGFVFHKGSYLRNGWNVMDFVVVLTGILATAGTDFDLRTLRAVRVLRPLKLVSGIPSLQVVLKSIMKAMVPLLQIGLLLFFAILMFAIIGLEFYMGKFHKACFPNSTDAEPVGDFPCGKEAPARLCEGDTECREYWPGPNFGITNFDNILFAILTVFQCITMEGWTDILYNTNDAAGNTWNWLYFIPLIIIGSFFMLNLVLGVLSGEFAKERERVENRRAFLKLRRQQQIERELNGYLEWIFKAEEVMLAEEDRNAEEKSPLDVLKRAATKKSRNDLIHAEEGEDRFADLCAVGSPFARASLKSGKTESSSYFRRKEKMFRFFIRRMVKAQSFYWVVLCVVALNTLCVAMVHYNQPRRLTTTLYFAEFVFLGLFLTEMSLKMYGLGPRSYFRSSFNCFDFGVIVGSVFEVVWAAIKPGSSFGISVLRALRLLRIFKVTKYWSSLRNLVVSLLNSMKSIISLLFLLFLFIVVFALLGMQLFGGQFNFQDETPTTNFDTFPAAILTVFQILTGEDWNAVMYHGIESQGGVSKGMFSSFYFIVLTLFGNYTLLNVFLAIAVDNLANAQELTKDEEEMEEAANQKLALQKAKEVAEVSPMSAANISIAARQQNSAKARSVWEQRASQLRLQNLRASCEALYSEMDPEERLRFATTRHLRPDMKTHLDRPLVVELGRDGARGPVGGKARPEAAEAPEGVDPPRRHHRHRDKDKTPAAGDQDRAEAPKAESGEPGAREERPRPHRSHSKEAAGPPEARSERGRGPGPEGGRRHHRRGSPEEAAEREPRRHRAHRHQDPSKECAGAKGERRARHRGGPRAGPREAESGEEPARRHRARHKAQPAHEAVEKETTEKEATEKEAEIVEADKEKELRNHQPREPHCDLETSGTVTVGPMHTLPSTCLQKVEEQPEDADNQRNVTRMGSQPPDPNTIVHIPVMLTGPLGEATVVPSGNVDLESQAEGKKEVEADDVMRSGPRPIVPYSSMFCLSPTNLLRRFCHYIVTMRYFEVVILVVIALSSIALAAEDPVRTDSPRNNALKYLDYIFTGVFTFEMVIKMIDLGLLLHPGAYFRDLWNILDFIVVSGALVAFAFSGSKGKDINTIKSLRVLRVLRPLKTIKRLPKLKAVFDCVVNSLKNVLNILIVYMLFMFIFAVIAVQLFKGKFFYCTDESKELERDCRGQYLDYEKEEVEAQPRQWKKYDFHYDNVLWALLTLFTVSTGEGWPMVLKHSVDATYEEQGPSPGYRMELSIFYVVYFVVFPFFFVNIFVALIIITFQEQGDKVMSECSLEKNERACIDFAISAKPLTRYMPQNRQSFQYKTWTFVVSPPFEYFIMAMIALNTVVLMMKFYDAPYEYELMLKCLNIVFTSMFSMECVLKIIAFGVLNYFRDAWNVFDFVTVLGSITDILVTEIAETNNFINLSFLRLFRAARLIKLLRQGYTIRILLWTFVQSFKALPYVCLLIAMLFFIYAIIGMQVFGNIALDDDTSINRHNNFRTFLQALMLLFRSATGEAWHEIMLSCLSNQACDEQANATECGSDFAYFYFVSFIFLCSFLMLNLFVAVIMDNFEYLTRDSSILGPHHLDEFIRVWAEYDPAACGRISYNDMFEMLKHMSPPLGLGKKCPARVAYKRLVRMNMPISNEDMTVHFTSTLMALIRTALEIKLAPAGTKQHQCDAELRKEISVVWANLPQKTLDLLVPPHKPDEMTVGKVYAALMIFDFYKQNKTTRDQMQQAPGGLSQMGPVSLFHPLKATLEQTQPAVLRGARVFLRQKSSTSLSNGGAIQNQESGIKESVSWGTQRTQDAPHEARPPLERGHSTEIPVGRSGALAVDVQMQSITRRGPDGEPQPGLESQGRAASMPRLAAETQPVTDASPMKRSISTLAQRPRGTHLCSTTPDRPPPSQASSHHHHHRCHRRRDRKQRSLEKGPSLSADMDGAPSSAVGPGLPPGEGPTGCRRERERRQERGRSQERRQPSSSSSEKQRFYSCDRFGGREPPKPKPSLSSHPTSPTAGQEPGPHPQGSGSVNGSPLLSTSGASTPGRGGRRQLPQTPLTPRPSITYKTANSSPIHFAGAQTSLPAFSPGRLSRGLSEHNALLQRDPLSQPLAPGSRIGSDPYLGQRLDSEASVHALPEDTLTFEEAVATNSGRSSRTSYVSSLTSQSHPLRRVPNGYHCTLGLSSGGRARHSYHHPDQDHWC
T1 sequence (P54289 25-956 partner limits assumed): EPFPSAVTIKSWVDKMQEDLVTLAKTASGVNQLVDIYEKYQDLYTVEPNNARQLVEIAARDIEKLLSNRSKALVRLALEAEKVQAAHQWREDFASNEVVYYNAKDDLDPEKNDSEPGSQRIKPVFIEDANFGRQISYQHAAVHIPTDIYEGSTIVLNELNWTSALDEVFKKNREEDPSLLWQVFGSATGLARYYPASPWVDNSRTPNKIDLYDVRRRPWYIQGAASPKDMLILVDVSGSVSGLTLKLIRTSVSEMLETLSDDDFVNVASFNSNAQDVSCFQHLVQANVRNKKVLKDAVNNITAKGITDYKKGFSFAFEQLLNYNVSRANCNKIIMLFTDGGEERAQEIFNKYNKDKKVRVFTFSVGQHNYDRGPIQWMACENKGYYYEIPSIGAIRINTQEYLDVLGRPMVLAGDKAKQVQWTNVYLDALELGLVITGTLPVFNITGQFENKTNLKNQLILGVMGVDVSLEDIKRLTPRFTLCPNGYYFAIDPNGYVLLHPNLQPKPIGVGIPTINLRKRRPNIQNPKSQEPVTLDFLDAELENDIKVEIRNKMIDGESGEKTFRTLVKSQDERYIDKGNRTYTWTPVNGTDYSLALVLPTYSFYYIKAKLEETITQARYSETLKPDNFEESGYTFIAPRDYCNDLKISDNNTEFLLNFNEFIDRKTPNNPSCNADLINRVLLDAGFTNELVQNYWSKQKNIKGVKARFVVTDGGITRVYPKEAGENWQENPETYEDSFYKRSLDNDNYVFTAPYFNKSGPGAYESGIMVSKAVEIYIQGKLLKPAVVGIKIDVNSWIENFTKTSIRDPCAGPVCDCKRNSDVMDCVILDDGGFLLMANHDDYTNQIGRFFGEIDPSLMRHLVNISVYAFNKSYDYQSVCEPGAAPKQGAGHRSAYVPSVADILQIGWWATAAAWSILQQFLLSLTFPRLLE
T1 sequence (P54289 957-1103 partner limits assumed): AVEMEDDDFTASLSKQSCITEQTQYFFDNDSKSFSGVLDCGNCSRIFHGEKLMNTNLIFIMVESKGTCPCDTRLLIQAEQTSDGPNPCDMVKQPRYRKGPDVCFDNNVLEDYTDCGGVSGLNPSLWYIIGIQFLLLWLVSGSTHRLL
T1 sequence (P54284 whole entry partner): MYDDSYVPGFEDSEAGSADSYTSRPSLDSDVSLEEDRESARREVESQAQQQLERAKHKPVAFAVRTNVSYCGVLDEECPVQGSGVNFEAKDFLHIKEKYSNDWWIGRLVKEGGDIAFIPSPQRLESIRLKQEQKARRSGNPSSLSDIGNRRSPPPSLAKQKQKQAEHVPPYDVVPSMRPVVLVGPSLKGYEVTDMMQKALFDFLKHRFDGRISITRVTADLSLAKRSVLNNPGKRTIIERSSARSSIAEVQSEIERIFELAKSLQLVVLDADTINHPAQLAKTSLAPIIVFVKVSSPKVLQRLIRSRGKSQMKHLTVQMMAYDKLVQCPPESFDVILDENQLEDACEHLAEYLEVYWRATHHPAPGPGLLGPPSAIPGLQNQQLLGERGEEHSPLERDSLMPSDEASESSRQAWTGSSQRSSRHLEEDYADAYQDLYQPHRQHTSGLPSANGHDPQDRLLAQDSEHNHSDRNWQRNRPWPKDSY

inhibition at 10 µM | inhibition at 30 µM | Structure (SMILES)
20% | 26% | CC(C)(C)c1cc(N2CCN(C(=O)c3cc(-c4ccccc4)nc(-c4ccccc4)c3)CC2)cc(C(C)(C)C)c1 [Compound 50, (4-(3,5-di-tert-butylphenyl)piperazin-1-yl)(2,6-diphenylpyridin-4-yl)methanone]
52% | 59% | CC(C)(C)c1cc(N2CCN(C(=O)c3ccc(C(C)(C)C)s3)CC2)cc(C(C)(C)C)c1 [Compound 34, (5-tert-butylthiophen-2-yl)(4-(3,5-di-tert-butylphenyl)piperazin-1-yl)methanone]
79% | 89% | CC(C)(C)c1cc(N2CCN(C(=O)c3nsc(Cl)c3Cl)CC2)cc(C(C)(C)C)c1 [Compound 46, (4-(3,5-di-tert-butylphenyl)piperazin-1-yl)(4,5-dichloroisothiazol-3-yl)methanone]
77% | 95% | Cc1oc(C(C)(C)C)cc1C(=O)N1CCN(c2cc(C(C)(C)C)cc(C(C)(C)C)c2)CC1 [Compound 35, (5-tert-butyl-2-methylfuran-3-yl)(4-(3,5-di-tert-butylphenyl)piperazin-1-yl)methanone]
46% | 57% | CC1CCc2sc(C(=O)N3CCN(c4cc(C(C)(C)C)cc(C(C)(C)C)c4)CC3)cc2C1 (stereo not drawn) [Compound 43, (4-(3,5-di-tert-butylphenyl)piperazin-1-yl)(5-methyl-4,5,6,7-tetrahydrobenzo[b]thiophen-2-yl)methanone]

More lines, now with the values behind:

Structure (SMILES) | inhibition at 10 µM | inhibition at 30 µM
CC(C)c1ccc(C(=O)N2CCN(c3cc(C(C)(C)C)cc(C(C)(C)C)c3)CC2)cc1 [Compound 17, (4-(3,5-di-tert-butylphenyl)piperazin-1-yl)(4-isopropylphenyl)methanone] | 80% | 97%
CC(C)(C)c1cc(N2CCN(C(=O)c3csc(-c4cccc(C(F)(F)F)c4)n3)CC2)cc(C(C)(C)C)c1 [Compound 18, (4-(3,5-di-tert-butylphenyl)piperazin-1-yl)(2-(3-(trifluoromethyl)phenyl)thiazol-4-yl)methanone] | 59% | 83%
Cn1nc(C(C)(C)C)cc1C(=O)N1CCN(c2cc(C(C)(C)C)cc(C(C)(C)C)c2)CC1 [Compound 11, (3-tert-butyl-1-methyl-1H-pyrazol-5-yl)(4-(3,5-di-tert-butylphenyl)piperazin-1-yl)methanone] | 91% | 97%
COc1ccc(Cl)cc1C(=O)N1CCN(c2cc(C(C)(C)C)cc(C(C)(C)C)c2)CC1 [Compound 9, (5-chloro-2-methoxyphenyl)(4-(3,5-di-tert-butylphenyl)piperazin-1-yl)methanone] | 91% | 101%
CC(C)(C)c1cc(N2CCN(C(=O)c3scc(S(C)(=O)=O)c3Cl)CC2)cc(C(C)(C)C)c1 [Compound 6, (3-chloro-4-(methylsulfonyl)thiophen-2-yl)(4-(3,5-di-tert-butylphenyl)piperazin-1-yl)methanone] | 86% | 95%
Cc1ccc(C(=O)N2CCN(c3cc(C(C)(C)C)cc(C(C)(C)C)c3)CC2)c(C)c1 [Compound 15, (4-(3,5-di-tert-butylphenyl)piperazin-1-yl)(2,4-dimethylphenyl)methanone] | 96% | 93%
CC(C)c1cc(C(=O)N2CCN(c3cc(C(C)(C)C)cc(C(C)(C)C)c3)CC2)on1 [Compound 24, (4-(3,5-di-tert-butylphenyl)piperazin-1-yl)(3-isopropylisoxazol-5-yl)methanone] | 88% | 96%
CC(C)(C)c1cc(N2CCN(C(=O)c3cc(S(C)(=O)=O)ccc3Cl)CC2)cc(C(C)(C)C)c1 [Compound 25, (2-chloro-5-(methylsulfonyl)phenyl)(4-(3,5-di-tert-butylphenyl)piperazin-1-yl)methanone] | 89% | 99%
CC(C)(C)c1cc(N2CCN(C(=O)c3ccc(S(C)(=O)=O)cc3Cl)CC2)cc(C(C)(C)C)c1 [Compound 5, (2-chloro-4-(methylsulfonyl)phenyl)(4-(3,5-di-tert-butylphenyl)piperazin-1-yl)methanone] | 85% | 96%
CC(C)(C)c1cc(N2CCN(C(=O)c3ccc(S(=O)(=O)C(C)(C)C)s3)CC2)cc(C(C)(C)C)c1 [Compound 21, (5-(tert-butylsulfonyl)thiophen-2-yl)(4-(3,5-di-tert-butylphenyl)piperazin-1-yl)methanone] | 53% | 78%
